Assay results published in patent US11459315B2, “Modulators of methyl modifying enzymes, compositions and uses thereof” (Constellation Pharmaceuticals, Inc., priority 2017, dated 2022).
Read-outs that look alike come from different tables or passages of the source.

Columns and labels:
[1] = biological target: PRC2 containing wt EZH2 (Homo sapiens (Human), UniProt Q15910); assay: EZH2 biochemical assay (IC50), 3H-SAM incorporation into biotinylated H3 peptide; conditions: 30 pM PRC2 containing wt EZH2, 3-5 h pre-incubation
Outline: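 Activity was measured as ³H-methyl transfer to a biotinylated H3K27me1 peptide over 18-22 h at room temperature, with capture on streptavidin flash plates. The 30 pM wt-EZH2 PRC2 complex was first pre-incubated 3-5 h with compound, 450 nM SAM/450 nM ³H-SAM and 2 µM H3K27me3 activator (pH 8.5, 0.8% DMSO). Four-parameter fits gave IC50.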

[2] = test system: H3K27me3 mark in HeLa cells (EZH2); assay: H3K27me3 Alpha Hela Assay (AlphaLISA); assay type: cell-based; conditions: Homo sapiens, HeLa, 72 h, HeLa cells, 72 hrs; read-out: EZH2 Cell H3K27me3 Alpha HeLa (EC50 K27me3)
Outline: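 HeLa cells (1,000/well) treated with ten 3-fold compound doses for 72 h at 37 °C; lysates extracted and H3K27me3 detected by AlphaLISA with anti-K27me3 acceptor beads, biotinylated anti-H3 (3 nM) and streptavidin donor beads. EC50 from DMSO-normalized dose-response curves; duplicate plate assessed viability.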

Chain of PRC2 containing wt EZH2 (Q15910 whole entry): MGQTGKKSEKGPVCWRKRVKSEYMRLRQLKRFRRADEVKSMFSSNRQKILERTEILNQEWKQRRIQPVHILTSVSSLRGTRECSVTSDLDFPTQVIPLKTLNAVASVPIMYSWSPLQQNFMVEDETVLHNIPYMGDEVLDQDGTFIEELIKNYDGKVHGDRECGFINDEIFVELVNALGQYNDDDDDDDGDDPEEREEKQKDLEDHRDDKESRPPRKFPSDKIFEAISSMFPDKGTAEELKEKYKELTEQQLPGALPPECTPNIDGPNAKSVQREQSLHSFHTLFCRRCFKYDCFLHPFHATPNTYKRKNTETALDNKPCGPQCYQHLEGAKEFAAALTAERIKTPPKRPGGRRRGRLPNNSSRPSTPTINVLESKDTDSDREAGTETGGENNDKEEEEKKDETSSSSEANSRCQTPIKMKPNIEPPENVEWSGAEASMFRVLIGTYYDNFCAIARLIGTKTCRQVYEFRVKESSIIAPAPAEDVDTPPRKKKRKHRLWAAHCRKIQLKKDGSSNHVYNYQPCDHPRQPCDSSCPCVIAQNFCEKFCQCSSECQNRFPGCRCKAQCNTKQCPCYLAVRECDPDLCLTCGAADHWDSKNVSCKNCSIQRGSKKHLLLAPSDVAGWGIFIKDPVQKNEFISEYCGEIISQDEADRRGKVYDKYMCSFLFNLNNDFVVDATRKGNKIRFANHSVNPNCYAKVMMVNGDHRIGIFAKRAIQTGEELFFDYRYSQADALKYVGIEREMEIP
Chain of PRC2 containing wt EZH2 (O75530 whole entry partner): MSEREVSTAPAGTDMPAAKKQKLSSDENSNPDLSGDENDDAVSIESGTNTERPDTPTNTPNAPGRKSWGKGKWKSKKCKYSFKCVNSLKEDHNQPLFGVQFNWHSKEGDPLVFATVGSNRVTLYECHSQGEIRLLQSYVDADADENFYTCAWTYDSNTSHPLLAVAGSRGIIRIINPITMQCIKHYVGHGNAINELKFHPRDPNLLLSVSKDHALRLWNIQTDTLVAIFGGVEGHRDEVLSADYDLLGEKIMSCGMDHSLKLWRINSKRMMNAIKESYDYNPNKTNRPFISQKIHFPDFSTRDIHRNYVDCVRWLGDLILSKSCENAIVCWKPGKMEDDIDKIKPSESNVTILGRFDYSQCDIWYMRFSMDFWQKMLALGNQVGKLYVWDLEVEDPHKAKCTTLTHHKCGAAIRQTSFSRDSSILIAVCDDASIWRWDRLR
Chain of PRC2 containing wt EZH2 (Q15022 whole entry partner): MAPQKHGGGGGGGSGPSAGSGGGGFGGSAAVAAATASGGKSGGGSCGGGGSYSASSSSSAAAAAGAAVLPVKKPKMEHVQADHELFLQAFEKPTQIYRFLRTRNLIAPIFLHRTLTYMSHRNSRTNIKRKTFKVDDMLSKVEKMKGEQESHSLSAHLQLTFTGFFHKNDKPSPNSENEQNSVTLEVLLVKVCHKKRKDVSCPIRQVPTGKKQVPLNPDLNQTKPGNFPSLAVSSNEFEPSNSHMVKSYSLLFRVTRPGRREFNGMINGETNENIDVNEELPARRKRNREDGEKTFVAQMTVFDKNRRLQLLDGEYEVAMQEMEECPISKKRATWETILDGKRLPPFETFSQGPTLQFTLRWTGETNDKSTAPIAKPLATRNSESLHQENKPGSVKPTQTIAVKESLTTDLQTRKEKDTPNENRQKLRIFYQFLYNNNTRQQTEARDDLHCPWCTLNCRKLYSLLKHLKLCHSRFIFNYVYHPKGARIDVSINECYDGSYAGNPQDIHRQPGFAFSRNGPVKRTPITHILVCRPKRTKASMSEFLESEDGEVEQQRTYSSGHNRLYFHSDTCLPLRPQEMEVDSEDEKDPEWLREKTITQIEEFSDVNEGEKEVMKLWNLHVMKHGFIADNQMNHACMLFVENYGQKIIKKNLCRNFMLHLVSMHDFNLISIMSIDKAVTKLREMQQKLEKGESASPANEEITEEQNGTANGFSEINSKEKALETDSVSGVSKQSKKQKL
Chain of PRC2 containing wt EZH2 (Q09028 whole entry partner): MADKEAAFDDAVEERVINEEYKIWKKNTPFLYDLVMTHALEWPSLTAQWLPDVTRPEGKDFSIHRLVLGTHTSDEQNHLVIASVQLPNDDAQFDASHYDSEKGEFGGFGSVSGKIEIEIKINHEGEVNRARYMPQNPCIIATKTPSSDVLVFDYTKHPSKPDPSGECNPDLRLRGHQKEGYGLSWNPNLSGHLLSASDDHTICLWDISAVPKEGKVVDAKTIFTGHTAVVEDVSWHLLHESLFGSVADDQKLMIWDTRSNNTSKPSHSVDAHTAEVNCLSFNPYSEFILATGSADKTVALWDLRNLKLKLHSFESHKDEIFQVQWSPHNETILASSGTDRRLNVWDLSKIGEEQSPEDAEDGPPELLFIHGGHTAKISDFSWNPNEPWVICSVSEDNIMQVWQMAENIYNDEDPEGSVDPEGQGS
Chain of PRC2 containing wt EZH2 (Q6ZN18 whole entry partner): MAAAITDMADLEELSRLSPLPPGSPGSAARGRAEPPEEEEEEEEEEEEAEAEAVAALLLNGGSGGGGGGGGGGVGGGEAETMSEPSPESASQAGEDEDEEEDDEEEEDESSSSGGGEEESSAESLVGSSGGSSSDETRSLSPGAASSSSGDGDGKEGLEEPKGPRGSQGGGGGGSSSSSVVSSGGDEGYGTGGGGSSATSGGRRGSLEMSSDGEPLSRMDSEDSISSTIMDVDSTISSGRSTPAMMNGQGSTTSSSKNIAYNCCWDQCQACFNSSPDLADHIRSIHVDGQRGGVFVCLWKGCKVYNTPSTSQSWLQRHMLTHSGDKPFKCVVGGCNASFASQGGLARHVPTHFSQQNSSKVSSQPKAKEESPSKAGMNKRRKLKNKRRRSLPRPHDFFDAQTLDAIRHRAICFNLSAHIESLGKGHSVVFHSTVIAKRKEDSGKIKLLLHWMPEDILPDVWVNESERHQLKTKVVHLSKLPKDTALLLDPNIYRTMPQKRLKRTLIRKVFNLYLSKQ

SMILES | IC50 ([1]; EZH2 (IC50)) [nM] | EC50 [2] [nM] | IC50 ([1]; read-out: EZH2 (IC50)) [nM]
CSc1cc(C)[nH]c(=O)c1CNC(=O)c1c(C)n([C@H](C)C2CCN(C3CC3)CC2)c2ncc(Cl)cc12 [Example 69, (R)-5-chloro-1-(1-(1-cyclopropylpiperidin-4-yl)ethyl)-2-methyl-N-((6-methyl-4-(methylthio)-2-oxo-1,2-dihydropyridin-3-yl)methyl)-1H-pyrrolo[2,3-b]pyridine-3-carboxamide] | < 0.5 | < 10 | 
CSc1cc(C)[nH]c(=O)c1CNC(=O)c1c(C)n([C@H](C)[C@H]2CCN(C)[C@H](C(F)(F)F)C2)c2ccccc12 [Example 71, 2-methyl-1-((R)-1-((2S,4S)-1-methyl-2-(trifluoromethyl)piperidin-4-yl)ethyl)-N-((6-methyl-4-(methylthio)-2-oxo-1,2-dihydropyridin-3-yl)methyl)-1H-indole-3-carboxamide] | < 0.5 | < 10 | 
CSc1cc(C)[nH]c(=O)c1CNC(=O)c1c(C)n([C@H](C)C2CCC(N3CCCC3=O)CC2)c2ccccc12 (stereo partly drawn) [Example 72, 2-methyl-N-((6-methyl-4-(methylthio)-2-oxo-1,2-dihydropyridin-3-yl)methyl)-1-((R)-1-(4-(2-oxopyrrolidin-1-yl)cyclohexyl)ethyl)-1H-indole-3-carboxamide] |  | 10 to 100 | < 0.5
CSc1cc(C)[nH]c(=O)c1CNC(=O)c1c(C)n([C@H](C)C2CCN(CC(F)(F)F)CC2)c2ncncc12 [Example 73, (R)-6-methyl-N-((6-methyl-4-(methylthio)-2-oxo-1,2-dihydropyridin-3-yl)methyl)-7-(1-(1-(2,2,2-trifluoroethyl)piperidin-4-yl)ethyl)-7H-pyrrolo[2,3-d]pyrimidine-5-carboxamide] | < 0.5 | < 10 | 
CSc1cc(C)[nH]c(=O)c1CNC(=O)c1c(C)n([C@H](C)C2CCC(N3CCOC3=O)CC2)c2ccccc12 (stereo partly drawn) [Example 74, 2-methyl-N-((6-methyl-4-(methylthio)-2-oxo-1,2-dihydropyridin-3-yl)methyl)-1-((R)-1-(4-(2-oxooxazolidin-3-yl)cyclohexyl)ethyl)-1H-indole-3-carboxamide] |  | 10 to 100 | < 0.5
COC1CN(C2CCC([C@@H](C)n3c(C)c(C(=O)NCc4c(SC)cc(C)[nH]c4=O)c4cncnc43)CC2)C1 (stereo partly drawn) [Example 77, 7-((R)-1-(4-(3-methoxyazetidin-1-yl)cyclohexyl)ethyl)-6-methyl-N-((6-methyl-4-(methylthio)-2-oxo-1,2-dihydropyridin-3-yl)methyl)-7H-pyrrolo[2,3-d]pyrimidine-5-carboxamide] | < 0.5 | 10 to 100 | 
CSc1cc(C)[nH]c(=O)c1CNC(=O)c1c(C)n([C@H](C)C2CCC(N3CC(C)(F)C3)CC2)c2ncccc12 (stereo partly drawn) [Example 80, 1-((R)-1-(4-(3-fluoro-3-methylazetidin-1-yl)cyclohexyl)ethyl)-2-methyl-N-((6-methyl-4-(methylthio)-2-oxo-1,2-dihydropyridin-3-yl)methyl)-1H-pyrrolo[2,3-b]pyridine-3-carboxamide] | < 0.5 | 10 to 100 | 
CSc1cc(C)[nH]c(=O)c1CNC(=O)c1c(C)n([C@H](C)C2CCN(C3CC(F)(F)C3)CC2)c2ccccc12 [Example 81, (R)-1-(1-(1-(3,3-difluorocyclobutyl)piperidin-4-yl)ethyl)-2-methyl-N-((6-methyl-4-(methylthio)-2-oxo-1,2-dihydropyridin-3-yl)methyl)-1H-indole-3-carboxamide] | < 0.5 | 10 to 100 | 
CSc1cc(C)[nH]c(=O)c1CNC(=O)c1c(C)n([C@H](C)C2CCC(N3CC(F)C3)CC2)c2c(F)cccc12 (stereo partly drawn) [Example 82, 7-fluoro-1-((R)-1-(4-(3-fluoroazetidin-1-yl)cyclohexyl)ethyl)-2-methyl-N-((6-methyl-4-(methylthio)-2-oxo-1,2-dihydropyridin-3-yl)methyl)-1H-indole-3-carboxamide] | < 0.5 | < 10 | 
CSc1cc(C)[nH]c(=O)c1CNC(=O)c1c(C)n([C@H](C)C2CCC(N3CC(F)C3)CC2)c2cc(F)ccc12 (stereo partly drawn) [Example 83, (R)-6-fluoro-1-(1-(4-(3-fluoroazetidin-1-yl)cyclohexyl)ethyl)-2-methyl-N-((6-methyl-4-(methylthio)-2-oxo-1,2-dihydropyridin-3-yl)methyl)-1H-indole-3-carboxamide] | < 0.5 | < 10 | 
CCSc1cc(C)[nH]c(=O)c1CNC(=O)c1c(C)n([C@H](C)C2CCN(CC(F)(F)F)CC2)c2ccccc12 [Example 86, (R)-N-((4-(ethylthio)-6-methyl-2-oxo-1,2-dihydropyridin-3-yl)methyl)-2-methyl-1-(1-(1-(2,2,2-trifluoroethyl)piperidin-4-yl)ethyl)-1H-indole-3-carboxamide] | 0.5 to 5 | 10 to 100 | 
CSc1cc(C)[nH]c(=O)c1CNC(=O)c1c(C)n([C@H](C)C2CCN(CC(F)(F)F)CC2)c2cccc(C)c12 [Example 87, (R)-2,4-dimethyl-N-((6-methyl-4-(methylthio)-2-oxo-1,2-dihydropyridin-3-yl)methyl)-1-(1-(1-(2,2,2-trifluoroethyl)piperidin-4-yl)ethyl)-1H-indole-3-carboxamide] | 0.5 to 5 | < 10 | 
CSc1cc(C)[nH]c(=O)c1CNC(=O)c1c(C)n([C@H](C)C2CCN(CCC(F)(F)F)CC2)c2ccccc12 [Example 88, (R)-2-methyl-N-((6-methyl-4-(methylthio)-2-oxo-1,2-dihydropyridin-3-yl)methyl)-1-(1-(1-(3,3,3-trifluoropropyl)piperidin-4-yl)ethyl)-1H-indole-3-carboxamide] | < 0.5 | 10 to 100 | 
CSc1cc(C)[nH]c(=O)c1CNC(=O)c1c(C)n([C@H](C)C2CCC(NCC(F)(F)F)CC2)c2ncncc12 (stereo partly drawn) [Example 89, 6-methyl-N-((6-methyl-4-(methylthio)-2-oxo-1,2-dihydropyridin-3-yl)methyl)-7-((R)-1-(4-((2,2,2-trifluoroethyl)amino)cyclohexyl)ethyl)-7H-pyrrolo[2,3-d]pyrimidine-5-carboxamide] |  | 10 to 100 | < 0.5
CSc1cc(C)[nH]c(=O)c1CNC(=O)c1c(C)n([C@H](C)C2CCN(CC(F)(F)F)CC2)c2cc(F)ccc12 [Example 92, (R)-6-fluoro-2-methyl-N-((6-methyl-4-(methylthio)-2-oxo-1,2-dihydropyridin-3-yl)methyl)-1-(1-(1-(2,2,2-trifluoroethyl)piperidin-4-yl)ethyl)-1H-indole-3-carboxamide] | < 0.5 | < 10 | 
COC1CN(C2CCC([C@@H](C)n3c(C)c(C(=O)NCc4c(SCF)cc(C)[nH]c4=O)c4ccccc43)CC2)C1 (stereo partly drawn) [Example 93, N-((4-((fluoromethyl)thio)-6-methyl-2-oxo-1,2-dihydropyridin-3-yl)methyl)-1-((R)-1-(4-(3-methoxyazetidin-1-yl)cyclohexyl)ethyl)-2-methyl-1H-indole-3-carboxamide] |  | 10 to 100 | < 0.5
CSc1cc(C)[nH]c(=O)c1CNC(=O)c1c(C)n([C@H](C)C2CCC(N3CCC(F)(F)C3)CC2)c2ccccc12 (stereo partly drawn) [Example 95, 1-((R)-1-(4-(3,3-difluoropyrrolidin-1-yl)cyclohexyl)ethyl)-2-methyl-N-((6-methyl-4-(methylthio)-2-oxo-1,2-dihydropyridin-3-yl)methyl)-1H-indole-3-carboxamide] |  | < 10 | < 0.5
CSc1cc(C)[nH]c(=O)c1CNC(=O)c1c(C)n([C@H](C)C2CCC(N3CC(C(F)F)C3)CC2)c2ncccc12 (stereo partly drawn) [Example 96, 1-((R)-1-(4-(3-(difluoromethyl)azetidin-1-yl)cyclohexyl)ethyl)-2-methyl-N-((6-methyl-4-(methylthio)-2-oxo-1,2-dihydropyridin-3-yl)methyl)-1H-pyrrolo[2,3-b]pyridine-3-carboxamide] |  | < 10 | < 0.5
CSc1cc(C)[nH]c(=O)c1CNC(=O)c1c(C)n([C@H](C)C2CCN(CC(F)(F)F)CC2)c2cccc(C#N)c12 [Example 97, (R)-4-cyano-2-methyl-N-((6-methyl-4-(methylthio)-2-oxo-1,2-dihydropyridin-3-yl)methyl)-1-(1-(1-(2,2,2-trifluoroethyl)piperidin-4-yl)ethyl)-1H-indole-3-carboxamide] |  | > 100 | > 5
CSc1cc(C)[nH]c(=O)c1CNC(=O)c1c(C)n([C@H](C)C2CCC(N3CC(F)C3)CC2)c2ncc(Cl)cc12 (stereo partly drawn) [Example 98, 5-chloro-1-((R)-1-(4-(3-fluoroazetidin-1-yl)cyclohexyl)ethyl)-2-methyl-N-((6-methyl-4-(methylthio)-2-oxo-1,2-dihydropyridin-3-yl)methyl)-1H-pyrrolo[2,3-b]pyridine-3-carboxamide] | < 0.5 | < 10 | 
COC1CN(C2CCC([C@@H](C)n3c(C)c(C(=O)NCc4c(SC5CC5)cc(C)[nH]c4=O)c4ccccc43)CC2)C1 (stereo partly drawn) [Example 99, N-((4-(cyclopropylthio)-6-methyl-2-oxo-1,2-dihydropyridin-3-yl)methyl)-1-((R)-1-(4-(3-methoxyazetidin-1-yl)cyclohexyl)ethyl)-2-methyl-1H-indole-3-carboxamide] |  | 10 to 100 | < 0.5
CSc1cc(C)[nH]c(=O)c1CNC(=O)c1c(C)n([C@H](C)C2CCC(N3CC(OC4CC4)C3)CC2)c2ccccc12 (stereo partly drawn) [Example 100, 1-((R)-1-(4-(3-cyclopropoxyazetidin-1-yl)cyclohexyl)ethyl)-2-methyl-N-((6-methyl-4-(methylthio)-2-oxo-1,2-dihydropyridin-3-yl)methyl)-1H-indole-3-carboxamide] |  | < 10 | < 0.5
